For 20 compounds, TGI and GI50 results are on record in PubChem BioAssay (NCI).

Some test systems named below: A498 renal; CCRF-CEM leukemia; COLO 205 colon; HL-60(TB) leukemia; HT29 colon; M14 melanoma; MOLT-4 leukemia; OVCAR-5 ovarian; SF-268 CNS.
Common to all, as to test: NCI-60 cell line screen, 48 h

“And” between values parts separate entries of the source, which are not always exact repeats. Identical values can stand only once.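 Assay format: 96-well plates, 48-hour exposure. The concentration for 50% growth inhibition is given as GI50. Definition used: TGI = concentration required for complete inhibition of growth.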

In the case of `COc1ccc(NC(=O)C(=O)NNC(=O)c2sc(NNC(C)=O)nc2C)c([N+](=O)[O-])c1`, the TGI in the experiment on A498 renal was above 100 µM; in the experiment with CCRF-CEM leukemia, 61.7 µM; in the experiment on COLO 205 colon, above 100 µM; in the experiment on HL-60(TB) leukemia it was above 100 µM; in the experiment with HT29 colon, above 100 µM; in the experiment with M14 melanoma, above 100 µM. Besides, the TGI in the experiment on MOLT-4 leukemia was 85.1 µM; with OVCAR-5 ovarian it was above 100 µM; with SF-268 CNS it was above 100 µM.
With `CCC(C(=O)[O-])C(=O)[O-].CCC(C(=O)[O-])C(=O)[O-].N.N.NCCCCCN.[Pt+4].[Pt+4]`, the GI50 was above 100 µM with A498 renal; 55.9 µM with CCRF-CEM leukemia; 47.8 µM with COLO 205 colon; 43.1 µM in the experiment with HL-60(TB) leukemia; above 100 µM in the experiment with HT29 colon; above 100 µM in the experiment with M14 melanoma. For the same compound, the GI50 in the experiment with MOLT-4 leukemia was 84.3 µM; in the experiment on OVCAR-5 ovarian, above 100 µM; in the experiment with SF-268 CNS it was above 100 µM. Besides, the TGI in the experiment on A498 renal, in the experiment with CCRF-CEM leukemia, in the experiment on COLO 205 colon, with HL-60(TB) leukemia, in the experiment with HT29 colon and with M14 melanoma was above 100 µM in each case. Besides, the TGI in the experiment on MOLT-4 leukemia, in the experiment with OVCAR-5 ovarian and in the experiment on SF-268 CNS was above 100 µM each time.
Consider `NC(=O)c1csc(C2C=CC(CO)O2)n1` (stereo not drawn), for which the TGI in the experiment on A498 renal, in the experiment on CCRF-CEM leukemia, in the experiment with COLO 205 colon, with HL-60(TB) leukemia, in the experiment on HT29 colon and in the experiment on M14 melanoma was above 100 µM in each case. In addition, the TGI with MOLT-4 leukemia, with OVCAR-5 ovarian and in the experiment with SF-268 CNS was above 100 µM throughout.
For `O=C1CC2CCCCC2=C1O` (stereo not drawn), the TGI in the experiment on A498 renal, in the experiment with CCRF-CEM leukemia, in the experiment with COLO 205 colon, in the experiment with HL-60(TB) leukemia, in the experiment with MOLT-4 leukemia and with OVCAR-5 ovarian was above 100 µM throughout. Further, the TGI in the experiment on SF-268 CNS is above 100 µM.
For `Cc1ccc(NC(=O)CC(=O)n2nc(-c3ccccc3)c(N=Nc3ccc(Cl)cc3)c2-c2ccccc2)cc1`, the TGI in the experiment with A498 renal was above 100 µM; in the experiment with CCRF-CEM leukemia it was 54.3 µM; with COLO 205 colon it was above 100 µM; in the experiment with HL-60(TB) leukemia it was 17.7 µM; in the experiment on HT29 colon, 40.4 µM; with M14 melanoma, above 100 µM. Also, the TGI in the experiment with MOLT-4 leukemia, in the experiment with OVCAR-5 ovarian and in the experiment on SF-268 CNS was above 100 µM each time.
As to `C/C(=N\NC(=O)CC(=O)Nc1ccc(Cl)cc1)c1cc2ccccc2oc1=O`, the TGI in the experiment on CCRF-CEM leukemia, in the experiment on COLO 205 colon, in the experiment on HL-60(TB) leukemia, in the experiment on HT29 colon, with M14 melanoma and in the experiment with MOLT-4 leukemia was above 100 µM in each case.
Regarding `Cc1ccc(NS(=O)(=O)c2cc(C(C)(C)C)ccc2OCCOCCOCCOc2ccc(C(C)(C)C)cc2S(=O)(=O)Nc2ccc(C)cc2)cc1`, the TGI in the experiment on A498 renal, in the experiment with CCRF-CEM leukemia, with COLO 205 colon, in the experiment with HL-60(TB) leukemia, in the experiment on HT29 colon and in the experiment with M14 melanoma was above 100 µM in each case. In addition, the TGI in the experiment with MOLT-4 leukemia, in the experiment on OVCAR-5 ovarian and in the experiment on SF-268 CNS was above 100 µM in each case.
Regarding `O=C(CC/C(C/C(=N/O)c1ccc(F)cc1)=N/O)N(Cc1ccccc1)Cc1ccccc1`, the TGI with A498 renal, in the experiment on CCRF-CEM leukemia, in the experiment with COLO 205 colon, with HL-60(TB) leukemia, with HT29 colon and with M14 melanoma was above 100 µM throughout. Moreover, the TGI with MOLT-4 leukemia, in the experiment with OVCAR-5 ovarian and with SF-268 CNS was above 100 µM in each case.
Turning to `Cc1ccc(S(=O)(=O)CNC(=S)CCCC(=S)NCS(=O)(=O)c2ccc(C)cc2)cc1`, the TGI in the experiment with A498 renal, in the experiment on CCRF-CEM leukemia, in the experiment with COLO 205 colon, with HL-60(TB) leukemia, in the experiment with HT29 colon and in the experiment on M14 melanoma was above 100 µM throughout. The TGI with MOLT-4 leukemia, in the experiment on OVCAR-5 ovarian and in the experiment with SF-268 CNS was above 100 µM in each case.
For the compound `Cc1ccc(S(=O)(=O)N2CCC3(C(/C=C/c4ccccc4)=Nc4ccccc43)C2c2ccccc2)cc1` (stereo not drawn), the TGI in the experiment with A498 renal, in the experiment on CCRF-CEM leukemia, in the experiment with COLO 205 colon, with HL-60(TB) leukemia, in the experiment on HT29 colon and with M14 melanoma was above 100 µM each time. The TGI in the experiment on OVCAR-5 ovarian and in the experiment on SF-268 CNS was above 100 µM each time.
As for `CC1=C(C(=O)Nc2ccccc2C)C(c2ccc([N+](=O)[O-])cc2)C(C(=O)Nc2ccccc2C)=C(C)N1`, the TGI is 80.5 µM with A498 renal; 90.5 µM with CCRF-CEM leukemia; above 100 µM in the experiment with COLO 205 colon; 47 µM with HL-60(TB) leukemia; above 100 µM in the experiment with HT29 colon; above 100 µM in the experiment on M14 melanoma. Also, the TGI in the experiment on MOLT-4 leukemia, in the experiment with OVCAR-5 ovarian and in the experiment with SF-268 CNS was above 100 µM each time.
On to `CC(=O)OCC1OC(OC2CC3C(C)(C)C(OC(C)=O)CC[C@]3(C)C3CCC45CC4(CC[C@H]5C(C)CC(O)C4OC4(C)C)[C@]23C)C(O)C(O)C1O` (stereo partly drawn), for which the TGI with A498 renal is 10.2 µM; with CCRF-CEM leukemia, 2.3 µM and 5.04 µM; with COLO 205 colon, 1.84 µM and 3.79 µM; in the experiment with HL-60(TB) leukemia it was 2.09 µM and 3.03 µM; in the experiment on HT29 colon it was 1.73 µM and 3.38 µM; in the experiment on M14 melanoma, 6.75 µM and 6.61 µM. Moreover, the TGI in the experiment on MOLT-4 leukemia was 1.09 µM and 7.69 µM; in the experiment on OVCAR-5 ovarian, 2.52 µM and 4.46 µM; in the experiment on SF-268 CNS, 9.14 µM and 14.5 µM. Moreover, the GI50 with CCRF-CEM leukemia was 2.19 µM; in the experiment on COLO 205 colon it was 2.05 µM; with HL-60(TB) leukemia, 0.623 µM; in the experiment with HT29 colon it was 1.86 µM; in the experiment with MOLT-4 leukemia, 2.52 µM; with OVCAR-5 ovarian it was 2.02 µM. For the same compound, in the experiment with SF-268 CNS, the GI50 was 3.67 µM.
For `CC[C@@]1(O)C(=O)OCc2c1cc1n(c2=O)Cc2cc3cc(OC)ccc3nc2-1`, the GI50 was 0.0272 µM in the experiment with A498 renal; 0.00232 µM in the experiment with CCRF-CEM leukemia; 0.419 µM and 0.143 µM in the experiment with COLO 205 colon; 0.00873 µM in the experiment with HL-60(TB) leukemia; 0.0864 µM in the experiment with HT29 colon; 0.127 µM in the experiment on M14 melanoma. The GI50 in the experiment with MOLT-4 leukemia was 0.0038 µM; in the experiment on OVCAR-5 ovarian, 0.643 µM; in the experiment with SF-268 CNS, 0.017 µM. For the same compound, the TGI was 1.8 µM and 0.307 µM in the experiment with A498 renal; 0.0172 µM in the experiment on HL-60(TB) leukemia; 0.238 µM in the experiment on HT29 colon; 0.0289 µM with MOLT-4 leukemia; 0.562 µM with OVCAR-5 ovarian.
With `CCCCCCCCCCCCCC/C(C(=O)OC)=C(/O)C(=O)OCC`, the TGI was above 100 µM in the experiment on A498 renal; above 100 µM in the experiment on CCRF-CEM leukemia; above 100 µM in the experiment with COLO 205 colon; above 100 µM with HL-60(TB) leukemia; above 100 µM with HT29 colon; 37.4 µM in the experiment with M14 melanoma. In addition, the values for the TGI with MOLT-4 leukemia, in the experiment with OVCAR-5 ovarian and in the experiment with SF-268 CNS were above 100 µM, 70.1 µM and 64.3 µM, respectively.
With `CN(C)c1ccc(/C=C2\CNC/C(=C\c3ccc(N(C)C)cc3)C2=O)cc1`, the TGI in the experiment on A498 renal was 39.5 µM; in the experiment with CCRF-CEM leukemia, above 100 µM; in the experiment on COLO 205 colon, above 100 µM; in the experiment with HT29 colon, 24.1 µM; in the experiment on M14 melanoma, above 100 µM; with MOLT-4 leukemia it was above 100 µM. In addition, the TGI in the experiment on OVCAR-5 ovarian is above 100 µM.
For the compound `CC(=O)O[C@H]1[C@@H]2[C@@H]3[C@@H](C[C@H]1C)[C@@H](C)CO[C@@]1(C)CC/C=C(/C)C[C@@H]2O[C@@H]31`, the TGI with A498 renal, in the experiment with CCRF-CEM leukemia, with COLO 205 colon, in the experiment with HL-60(TB) leukemia, in the experiment on HT29 colon and with M14 melanoma was above 100 µM throughout. Also, the TGI in the experiment on MOLT-4 leukemia, in the experiment with OVCAR-5 ovarian and in the experiment with SF-268 CNS was above 100 µM throughout.
Consider `Cc1c(O)c(=O)ccn1C1OC(CO)C(O)C1O` (stereo not drawn), for which the TGI with A498 renal is above 100 µM; in the experiment with CCRF-CEM leukemia, above 100 µM; in the experiment on COLO 205 colon it was above 100 µM; in the experiment on HL-60(TB) leukemia, 56.3 µM; with HT29 colon, above 100 µM; in the experiment with M14 melanoma, above 100 µM. The TGI in the experiment on MOLT-4 leukemia, with OVCAR-5 ovarian and in the experiment on SF-268 CNS was above 100 µM throughout.
On to `CC1C=C(OC(=O)c2ccccc2)C(=O)C(n2cc(F)c(=O)n(C(=O)c3ccccc3)c2=O)O1` (stereo not drawn), for which the TGI was 45.2 µM in the experiment on CCRF-CEM leukemia; 62.1 µM in the experiment with COLO 205 colon; 50.1 µM with HL-60(TB) leukemia; above 100 µM in the experiment on HT29 colon; above 100 µM in the experiment with M14 melanoma; 71.4 µM in the experiment with MOLT-4 leukemia.
Take `COC(=O)C1=C(C(=O)OC)C23C=CC=CC24C(C(=O)OC)=C(C(=O)OC)C4C1C3` (stereo not drawn): the TGI with CCRF-CEM leukemia, in the experiment on COLO 205 colon, in the experiment on HL-60(TB) leukemia, in the experiment on HT29 colon, with M14 melanoma and in the experiment on MOLT-4 leukemia was above 100 µM in each case. The TGI in the experiment on OVCAR-5 ovarian and with SF-268 CNS was above 100 µM in each case.
On to `N#C/C(=C/c1cccnc1)C(=O)c1ccccc1`, for which the TGI in the experiment on CCRF-CEM leukemia, with COLO 205 colon, with HL-60(TB) leukemia, with HT29 colon, in the experiment with M14 melanoma and in the experiment with MOLT-4 leukemia was above 100 µM each time. Further, the TGI in the experiment on OVCAR-5 ovarian and in the experiment on SF-268 CNS was above 100 µM throughout.
